In patent US20260355318A1, “MOLECULAR MACHINES FOR TREATMENT OF CANCER, FUNGAL INFECTIONS, OR BACTERIAL INFECTIONS” (priority 2022, published 2026):
Like-named read-outs stand apart in the source and are kept apart here.

Columns and labels:
E. coli [1] = assay: MIC, E. coli; type: cell-based, Escherichia coli BW25113; conditions: Escherichia coli, read-out: MIC of MM
A. baumannii [2] = assay: MIC, A. baumannii; type: cell-based, Acinetobacter baumannii; conditions: for MIC of MM: A. baumannii, 405 nm light; for MIC: Acinetobacter baumannii, read-out: MIC of MM
Method in brief: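 Cell suspensions were exposed to compound at 0.3125-40 μM for 30 min in the dark, with agitation, at 30 or 37 °C depending on strain. Each sample was then irradiated with 405 nm light at 146 mW cm^−2 for 5 min (43.8 J cm^−2), inoculated into MHB and incubated overnight. MIC was read as the lowest concentration without visible growth, alongside non-irradiated controls.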

P. aeruginosa [3] = assay: MIC, P. aeruginosa; type: cell-based, Pseudomonas aeruginosa; conditions: Pseudomonas aeruginosa, read-out: MIC of MM
Method: (§1) The appropriate volume of an MM stock at 8 mM necessary to achieve a concentration ranging from 0.3125 to 40 μM was pipetted into a 2 mL microcentrifuge tube to which 1 mL of cell suspension prepared as previously described was added. Corresponding negative controls (DMSO only) were prepared in the same way. The mixture was gently mixed by pipetting and incubated in the dark at 30 or 37 ° C, depending on the strain, for 30 min with agitation (220 rpm). Afterward, MM- or DMSO-treated cells were dispensed in one well of a 24-well plate positioned in the center of the light beam (405 nm LED Light, Prizmatix, UHP—F-5-405) placed at the appropriate distance necessary to achieve the desired light intensity of 304 mW cm-2, 146 mW cm2 or 87 mW cm2, as measured with a handheld digital power meter console coupled to an S415C thermal power sensor head (Thorlabs, Newton, MA, USA). The temperature during irradiation was monitored using a thermocouple probe (Model SC-TT-K-30-36-PP; Omega Engineering, Inc., Stanford, CT, USA). Samples were agitated during irradiation. Dark controls were prepared as previously described except that no irradiation was provided.
For MIC determination, samples treated with a range of concentrations of the different MM, as described above and were irradiated one at a time for 5 min at 146 mW cm^−2 (43.8 J cm^−2), after which irradiated aliquots were collected and inoculated into 1 mL MHB in a 2 mL microcentrifuge tube. Samples were incubated overnight at 30 or 37 ° C, depending on the strain, without agitation. Corresponding non-irradiated samples and negative controls (without bacteria) were also included. The following day, cultures were inspected for growth and the MIC was identified. The experimental procedure used to determine the MIC of visible light-activated MMs is schematically depicted in FIG. 26.

S. epidermidis = assay: MIC, S. epidermidis; type: cell-based; conditions: Staphylococcus epidermidis, read-out: MIC of MM
Method: as §1, with “provided. […]” for “provided.”

B. cereus = assay: MIC, B. cereus; type: cell-based; conditions: Bacillus cereus, read-out: MIC of MM
Method: as §1, with “provided. […]” for “provided.”

[4] = test system: Gram-negative and Gram-positive strains; assay: MIC comparison Gram-positive versus Gram-negative strains (incl. MRSA); type: cell-based; conditions: FIG. 33C
From the text: The dotted line denotes the limit of detection of the method. Results are the means of at least 3 biological replicas #standard error of the mean. (FIG. 33B) MIC value of MM 1, MM 5, MM 6 in different Gram-negative and Gram-positive strains, including MRSA. Bars represent the results from at least 3 biological replicas. Unless otherwise noted, results for MM and DMSO are always reported in the presence of light. (FIG. 33C) Box and whiskers plot (median values with min/max range) of the MIC values of MM 1, MM 5, and MM 6 among the Gram-negative and Gram-positive strains examined in this study. * P<0.05; ns, not significant.
The appropriate volume of an MM stock at 8 mM necessary to achieve a concentration ranging from 0.3125 to 40 μM was pipetted into a 2 mL microcentrifuge tube to which 1 mL of cell suspension prepared as previously described was added. Corresponding negative controls (DMSO only) were prepared in the same way. […] Afterward, MM- or DMSO-treated cells were dispensed in one well of a 24-well plate positioned in the center of the light beam (405 nm LED Light, Prizmatix, UHP—F-5-405) placed at the appropriate distance necessary to achieve the desired light intensity of 304 mW cm-2, 146 mW cm2 or 87 mW cm2, as measured with a handheld digital power meter console coupled to an S415C thermal power sensor head (Thorlabs, Newton, MA, USA). […]

E. coli [5] = assay: Time-kill / light-dose experiments, E. coli; type: cell-based, Escherichia coli; conditions: E. coli; for light dose for complete eradication: highest concentration of MM (5 μM), 405 nm
Method: (§2) Serial dilutions of irradiated cell suspensions were prepared in PBS. A volume of 10 AL of the appropriate serial dilutions was spot-plated onto LB agar plates. Following overnight incubation at 30 or 37 ° C, depending on the strain, bacterial viability was assessed as colony forming units (CFU) per mL. Results were expressed as log (N/NO) whereby N is the CFU mL^−1 at each irradiation time point and NO is the initial CFU mL^−1 of the corresponding sample. Only dilutions that yielded 10-100 colonies were counted.

A. baumannii [6] = assay: Time-kill / light-dose experiments, A. baumannii; type: cell-based, Acinetobacter baumannii; conditions: highest concentration of MM (5 μM), 405 nm
Method: as §2

P. aeruginosa [7] = assay: Time-kill / light-dose experiments, P. aeruginosa; type: cell-based, Pseudomonas aeruginosa; conditions: for light dose for complete eradication: 0.625 to 5 μM of MM, 405 nm; for time to reduce cell number to limit of detection: 2×MIC, 146 mW cm^−2 405 nm
Method: as §2

S. aureus = assay: Time-kill / light-dose experiments, S. aureus; type: cell-based, Staphylococcus aureus; conditions: 0.625 to 5 μM of MM, 405 nm
Method: as §2

[8] = test system: A. baumannii, E. coli, P. aeruginosa, S. aureus; assay: Resistance development / cross-resistance in bacteria (serial passaging); type: cell-based
Method: Isolation of MM-resistant mutants of E. coli, A. baumannii, P. aeruginosa, and S. aureus was attempted by irradiating cell suspensions treated with 4×MIC of the different MMs for 5 min at 146 mW cm^−2 (43.8 J cm^−2). No visible colonies could be obtained for any of the strains tested.
For resistance development by sequential passaging (Ling et al., 2015), A. baumannii, E. coli, P. aeruginosa, and S. aureus cells in exponential phase were collected and processed as described for MIC determination. Cells were incubated at 37 ° C for 24 h after which they were inspected for growth. Cells able to grow at 0.5×MIC were collected and re-challenged with a range of MM concentrations and then irradiated. The antibiotics ciprofloxacin and gentamicin (for Gram-negatives) or ciprofloxacin and tobramycin (for S. aureus) were used as controls.

[9] = Singlet oxygen generation (DPBF); conditions: irradiated
From the text: Percentage of DCFH-DA-(FIG. 45E) and APF-(FIG. 45F) positive cells, as detected using flow cytometry. UV-VIS spectra of the singlet oxygen trap DPBF in the presence of the fast antibacterial motor MM 1 (FIG. 45G) or the inert slow motor ARV 3-202 (FIG. 45H). (FIG. 451) Rate of decrease of the absorption of DPBF at 410 nm, indicative of singlet oxygen generation, in the presence of MM 1 or its slow analog ARV 3-202. […] Flow cytometry data (at least 10 000 cells) was acquired in a spectral analyzer (Sony SA3800) and analyzed using FlowJo software. Results are shown as the mean of at least 3 biological replicas±standard error of the mean. Comparisons between samples were performed in GraphPad Prism 8 using a Kruskal-Wallis test for comparison between three or more samples or an unpaired t-test for comparisons between two samples. * p<0.05. not significant=n.s.

[10] = E. coli, Table 9, 405 nm light 43.8 J cm^−2
[11] = Escherichia coli, read-out: MIC of MM in antibiotic-resistant E. coli
[12] = Staphylococcus aureus, S. aureus Gentamycin^R, one line per passage 1-20, read-out: MIC of MM in antibiotic-resistant S. aureus

Row | SMILES | MIC (E. coli [1]; [10]) | MIC of MM (A. baumannii [2]) | MIC (A. baumannii [2]) | MIC (P. aeruginosa [3]) | MIC (S. epidermidis) | MIC (B. cereus) | median MIC in Gram-positive versus Gram-negative bacteria [4] | time to reduce cell number to limit of detection (E. coli [5]; 2×MIC, 146 mW cm^−2 405 nm) | light dose for complete eradication (E. coli [5]) | light dose for complete eradication (A. baumannii [6]) | light dose for complete eradication (P. aeruginosa [7]) | time to reduce cell number to limit of detection (P. aeruginosa [7]) | light dose for complete eradication (S. aureus) | MIC [8, 11] | MIC [8, 12] | MIC (E. coli [1]; E. coli BW25113, 405 nm light 43.8 J cm^−2) | singlet oxygen generation [9]
1 | C[C@@H]1Cc2ccc3ccccc3c2/C1=C1\c2ccccc2Sc2cc(NCCN)ccc21 (racemic) [MM 6, N^1-(9-(2-methyl-2,3-dihydro-1H-cyclopenta[a]naphthalen-1-ylidene)-9H-thioxanthen-3-yl)ethane-1,2-diamine] | 2.5 µM | 2.5 µM | 2.5 µM | 0.625 µM | 0.078 µM | 10 µM | significant differences in the MIC between the two bacterial groups were not observed | 4 min | at least 40 J cm^−2 | at least 40 J cm^−2 | 16 J cm^−2 | 10 min | 16 J cm^−2 | 0.5 µM | 0.125 µM |  | 
2 | C[C@@H]1Cc2ccc3ccccc3c2/C1=C1\c2ccccc2Sc2cc(NCCN(C)C)ccc21 [MM 1, N^1N^1-dimethyl-N^2-(9-(2-methyl-2,3-dihydro-1H-cyclopenta[a]naphthalen-1-ylidene)-9H-thioxanthen-3-yl) ethane-1,2-diamine] | 1.25 µM | 2.5 µM | 2.5 µM | 0.625 µM | 0.078 µM | 10 µM | significant differences in the MIC between the two bacterial groups were not observed |  | at least 40 J cm^−2 | at least 40 J cm^−2 | 16 J cm^−2 | 3 min | 16 J cm^−2 | 4 µM | 0.125 µM | 1.25 µM | lower than that of its slow, inert counterpart
